Series [1] relates to Escherichia coli NCTC 10418. Kind of series: Agar plate multi-point inoculation, colour. The class given is cell-based.
Series [2] deals with Klebsiella pneumoniae NCTC 9528. The series is described as follows: Agar plate multi-point inoculation, colour. Type of series: cell-based.
For series [3], the system named is Providencia rettgeri NCTC 7475. Kind of series: Agar plate multi-point inoculation, colour. The class given is cell-based.
Series [4] relates to Enterobacter cloacae NCTC 11936. The series is described as follows: Agar plate multi-point inoculation, colour. The class given is cell-based.
For series [5], the system named is Serratia marcescens NCTC 10211. Kind of series: Agar plate multi-point inoculation, colour. Type of series: cell-based.
Series [6] relates to Salmonella typhimurium NCTC 74. Kind of series: Agar plate multi-point inoculation, colour. The class given is cell-based.
The test system of series [7] is Pseudomonas aeruginosa NCTC 10662. The series is described as follows: Agar plate multi-point inoculation, colour. Type of series: cell-based.
The subject of series [8] is Yersinia enterocolitica NCTC 11176. The series is described as follows: Agar plate multi-point inoculation, colour. To be noted: Columbia agar, FAC 500 mg/L, substrate 300 mg/L, 37° C. 18 h in air. The class given is cell-based.
Series [9] concerns Burkholderia cepacia NCTC 10931. The series is described as follows: Agar plate multi-point inoculation, colour. Type of series: cell-based. The note with it: Columbia agar, FAC 500 mg/L, substrate 300 mg/L, 37° C. 18 h in air.
Series [10] has as its system Acinetobacter baumannii NCTC 19606. The series is described as follows: Agar plate multi-point inoculation, colour. The class given is cell-based.
For series [11], the system named is Steptococcus pyogenes NCTC 8306. Kind of series: Agar plate multi-point inoculation, colour. Type of series: cell-based.
The subject of series [12] is Staphylococcus aureus (MRSA) NCTC 11939. Kind of series: Agar plate multi-point inoculation, colour. Type of series: cell-based. To be noted: Columbia agar, FAC 500 mg/L, substrate 300 mg/L, 37° C. 18 h in air.
Series [13] concerns Staphylococcus aureus NCTC 6571. Kind of series: Agar plate multi-point inoculation, colour. The class given is cell-based.
Series [14] relates to Staphylococcus epidermidis NCTC 11047. Kind of series: Agar plate multi-point inoculation, colour. The class given is cell-based.
Series [15] relates to Listeria monocytogenes NCTC 11994. Kind of series: Agar plate multi-point inoculation, colour. The class given is cell-based.
For series [16], the system named is Enterococcus faecium NCTC 7171. The series is described as follows: Agar plate multi-point inoculation, colour. Type of series: cell-based.
In series [17] the test system is Enterococcus faecalis NCTC 775. Kind of series: Agar plate multi-point inoculation, colour. The class given is cell-based.
The subject of series [18] is Bacillus subtilis NCTC 9372. Kind of series: Agar plate multi-point inoculation, colour. Type of series: cell-based.
In series [19] the test system is Candida albicans ATCC 90028. The class given is cell-based. To be noted: Columbia agar, FAC 500 mg/L, substrate 300 mg/L, 37° C. 18 h in air.
For series [20], the system named is Candida glabrata NCPF 3943. The series is described as follows: Agar plate multi-point inoculation, colour. The class given is cell-based.
Series [21] concerns Gram-positive or Gram-negative strains. The series is described as follows: Toxicity / growth of microorganisms on substrate agar plates. The class given is cell-based. To be noted: substrate 300 mg/L. The method, then:
This compound was tested on agar plates by multi-point inoculation. The plates were made from Columbia agar (Oxoid, Basingstoke, UK) (100 ml) supplemented with ferric ammonium citrate (FAC) (50 mg). After the agar had been autoclaved (121° C.) and cooled to 50° C., a filter sterilized solution of the substrate (8) (30 mg) dissolved in N-methylpyrrolidone (NMP) (200 μL) was added, thus giving a substrate concentration of 300 mg/L. After pouring, the plates were inoculated with a range of microorganisms and incubated at 37° C. for 18 h in air (Table 1).
In the publication of Zincke and Fries, the authors reported that treatment of 1,4,6,7-tetrabromo-DHN (20) with tin (II) chloride led to the removal of the bromines in the 1 and 4 positions. Their work was repeated and the expected 6,7-dibromo-DHN (21) was obtained smoothly and in good yield (68%). 6,7-Dibromo-DHN (21) is isomeric with the 1,4-dibromo compound which had proven unsuccessful as an aglycone for the detection of microorganisms. Notwithstanding this latter fact, we proceeded to evaluate the properties of 6,7-dibromo-DHN […] as an aglycone for artificial chromogenic enzyme substrates. […]

Another series concerns range of microorganisms. Kind of series: Agar plate evaluation with a range of microorganisms (hue, diffusion, background). Type of series: cell-based. To be noted: for colour (hue) after hydrolysis: agar plates with FAC.
In series [22] the test system is Burkholderia cepacia 1222. Kind of series: Agar plate multi-point inoculation, colour. Type of series: cell-based. The note with it: Columbia agar, FAC 500 mg/L, substrate 300 mg/L, 37° C. 18 h in air.
Series [23] concerns Citrobacter freundii NCTC 9750 or 46262. Kind of series: Agar plate multi-point inoculation, colour. The class given is cell-based. The note with it: Columbia agar, FAC 500 mg/L, substrate 300 mg/L, 37° C. 18 h in air.
The subject of series [24] is Morganella morganii 462403 (wild). Kind of series: Agar plate multi-point inoculation, colour. Type of series: cell-based. To be noted: Columbia agar, FAC 500 mg/L, substrate 300 mg/L, 37° C. 18 h in air.
[25] abbreviates: Columbia agar, FAC 500 mg/L, substrate 300 mg/L, 37° C. 18 h in air.

Where two headings read alike, the source gives them in different places. A value given as a limit tells only on which side of the number the result lay.

Regarding `OCC1OC(Oc2cc3ccccc3cc2O)C(O)C(O)C1O` [Compound 4, DHN-β-D-glucopyranoside], the melting point is > 210 °C (dec.). Also, the Colour entry in series [1] (setting [25]) is listed as “Tr”. Besides, the Colour result in [2] (setting [25]) is recorded as “++”. The Colour result in series [3] (setting [25]) is “++”. Besides, in [4] (setting [25]), the Colour entry is reported as “+”. For the same compound, the Colour entry in [5] (setting [25]) is given as “++”. Besides, the Colour entry in series [6] (setting [25]) is given as “−”. Also, in [7] (setting [25]), the Colour entry is on record as “−”. For the same compound, the Colour entry in series [8] is recorded as “−”. The Colour entry in series [9] is listed as “−”. The Colour result in series [10] (setting [25]) was “−”. The Colour entry in [11] (setting [25]) is given as “−”. For the same compound, the Colour result in [12] is reported as “−”. In addition, in [13] (setting [25]), the Colour entry is on record as “−”. Further, the Colour result in series [14] (setting [25]) was “−”. Besides, in [15] (setting [25]), the Colour result is “+”. For the same compound, the Colour result in series [16] (setting [25]) is “+”. In addition, the Colour result in series [17] (setting [25]) is reported as “+”. The Colour result in series [18] (setting [25]) is reported as “+”. Moreover, the Colour entry in [19] is given as “−”. Also, the Colour result in series [20] (setting [25]) is given as “−”.
In the case of `OCC1OC(Oc2cc3ccccc3cc2O)C(O)C(O)C1O` [Compound 8, DHN-β-D-galactopyranoside], the melting point is > 230 °C (dec.). Moreover, in series [1] (setting [25]), the Colour entry is on record as “++”. The Colour entry in [2] (setting [25]) is “++”. For the same compound, the Colour entry in [3] (setting [25]) is on record as “−”. For the same compound, in series [4] (setting [25]), the Colour entry is on record as “++”. Besides, the Colour result in series [5] (setting [25]) is “+”. The Colour entry in series [6] (setting [25]) is recorded as “−”. Also, in series [7] (setting [25]), the Colour result was “−”. The Colour entry in series [8] is recorded as “−”. Also, in series [9], the Colour result is given as “−”. Besides, in series [10] (setting [25]), the Colour result is “−”. Moreover, the Colour entry in series [11] (setting [25]) was “−”. The Colour entry in series [12] is “−”. Further, in series [13] (setting [25]), the Colour result is reported as “−”. The Colour entry in series [14] (setting [25]) was “−”. The Colour result in series [15] (setting [25]) is given as “−”. Further, the Colour result in series [16] (setting [25]) is recorded as “Tr”. For the same compound, the Colour entry in [17] (setting [25]) is “−”. For the same compound, the Colour result in series [18] (setting [25]) is given as “−”. In series [19], the Colour result is on record as “−”. In series [20] (setting [25]), the Colour result is listed as “−”. In addition, in [21], the “toxicity to strains tested” value was “no obvious toxicity”. For the same compound, the “colour (hue) after hydrolysis” value with range of microorganisms was “strong purple-maroon colour”. Moreover, in the series with range of microorganisms (plates incubated under anaerobic conditions), the “formation of coloured chelate” value is listed as “still formed”. Further, the “sensitivity after autoclaving substrate in agar” value with range of microorganisms (substrate added prior to autoclaving, 121° C. for 20 minutes) is “no decrease in sensitivity”.
For `CCCCCCCC(=O)Oc1cc2ccccc2cc1OC(=O)CCCCCCC` [Compound 16, DHN-dicaprylate], the Colour entry in series [1] (setting [25]) is reported as “−”; in [2] (setting [25]) it was “−”; in [3] (setting [25]), “+”; in series [4] (setting [25]) it was “−”; in series [5] (setting [25]), “+”; in series [6] (setting [25]), “−”. Besides, the Colour entry is on record as “+” in series [7] (setting [25]); “−” in series [8]; “−” in series [9]; “+” in series [10] (setting [25]); “−” in series [11] (setting [25]); “−” in [12]. In addition, the Colour result in [13] (setting [25]), in series [14] (setting [25]), in series [15] (setting [25]), in series [16] (setting [25]), in series [17] (setting [25]) and in series [18] (setting [25]) was “−” throughout. Also, the Colour entry in series [19] and in [20] (setting [25]) was “−” in each case.
Consider `O=P([O-])([O-])Oc1cc2ccccc2cc1O.[Na+].[Na+]` [Compound 17, DHN-phosphate Disodium Salt], for which the Colour entry in [1] is “+/−”; in [2] it was “++”; in series [3] it was “+”; in series [4], “+/−”; in [5] it was “++”; in [6] it was “++”. For the same compound, the Colour entry is listed as “−” in series [7]; “+/−” in series [8]; “+/−” in [9]; “−” in series [10]; “−” in series [11]; “+” in [12]. In addition, the Colour result was “+” in [13]; “−” in [14]; “+” in [15]; “−” in series [16]; “−” in [17]; “−” in series [18]. The Colour entry in [19] and in series [20] was “−” in each case.
Take `OC[C@H]1O[C@@H](Oc2cc3cc(Br)c(Br)cc3cc2O)C(O)C1O` (stereo partly drawn) [Compound 23, 6,7-Dibromo-DHN-β-D-ribofuranoside]: the Colour result is recorded as “−” in series [1] (setting [25]); “−” in [3] (setting [25]); “++” in [4] (setting [25]); “++” in series [5] (setting [25]); “++” in series [6] (setting [25]); “+” in series [7] (setting [25]). In addition, the Colour entry in [8], in [11] (setting [25]), in [12], in series [13] (setting [25]), in series [14] (setting [25]) and in [15] (setting [25]) was “−” each time. Besides, the Colour entry is “−” in series [16] (setting [25]); “−” in [17] (setting [25]); “−” in series [18] (setting [25]); “−” in [19]; “−” in series [20] (setting [25]); “+/−” in series [22]. Besides, the Colour result in series [23] and in series [24] was “++” throughout. For the same compound, in series [21], the “growth of Gram-positive bacteria” value is listed as “mainly suppressed”. Besides, the “colour (hue) after hydrolysis” value in the series on range of microorganisms is reported as “largely discrete red-brown or maroon colonies”.

These data come from patent US9938562B2, “Naphthalene derived chromogenic enzyme substrates” (Glycosynth Limited, priority 2013, dated 2018).
